Experimental data: US20200000843A1, “COMPOSITION FOR IMPROVEMENT OR PREVENTION OF PARKINSONIAN SYNDROME” (MiZ Company Limited, priority 2018, published 2020)
Read-outs that look alike come from different tables or passages of the source.

Legend:
[1] = compared with H2; cited from earlier work
[2] = test system: patient with multiple system atrophy; assay: Hydrogen water ingestion / hydrogen gas inhalation by a patient with multiple system atrophy (Case 3); assay type: in vivo, human; conditions: about 6.0 to 7.0% hydrogen, about 1.5 to about 2 hours every day, early stage after the start of the inhalation
Procedure: The hydrogen concentration in MHG-2000α is about 6.0 to 7.0% (hydrogen generation rate: about 140 ml/min).

[3] = test system: Parkinson's disease patient
[4] = test system: Parkinson's disease model rat; conditions: cited from earlier work
[5] = test system: Parkinson's disease patient; remark: listed apart in the source
Procedure: A Parkinson's disease patient (medical history: about 8 years) inhaled a mixed gas of hydrogen and air using a gaseous hydrogen inhalation apparatus (MHG-2000α (registered trademark); MiZ Company Limited) for about 90 minutes per day over about 2 months. Here, the mixed gas was inhaled every 2 or 3 days over first about 3 weeks and every day over subsequent about 5 weeks. The hydrogen concentration in MHG-2000α is about 6.0 to 7.0% by volume (hydrogen generation rate: about 140 ml/min).
A Parkinson's disease patient one (medical history: about 6 years) inhaled a mixed gas of hydrogen and air using a gaseous hydrogen inhalation apparatus (MHG-2000α (registered trademark); MiZ Company Limited) for about 90 minutes or about 120 minutes per day. Here, the mixed gas was inhaled every day over about 4.5 months. The hydrogen concentration in MHG-2000α is about 6.0 to 7.0% by volume (hydrogen generation rate: about 140 ml/min).

[6] = Case 1, first inhalation for 90 minutes, about 6.0 to 7.0% by volume hydrogen
[7] = Case 2, about 4 months after the start of inhalation
[8] = Case 2, immediately after inhalation for about 90 or about 120 minutes per day, substantially every day over about 1 month

[2H][2H] [D2, deuterium]
superoxide scavenging effect [1]: higher than that of H2

[HH] [hydrogen gas, molecular hydrogen]
gait [2]: became able to walk steadily and without support | action tremors, VAS scale values of 0 to 5.0 ([3]; Case 4, about 4% by volume hydrogen, about 20 minutes every day over 3 months, FIG. 1A): evidently improved | slowness of movement, VAS scale values of 0 to 5.0 ([3]; Case 4, about 4% by volume hydrogen, about 20 minutes every day over 3 months, FIG. 1B): evidently improved | tiny step gait, VAS scale values of 0 to 5.0 ([3]; Case 4, about 4% by volume hydrogen, about 20 minutes every day over 3 months, FIG. 1C): evidently improved | slowness of movement, VAS scale values of 0 to 5.0 ([3]; Case 5, about 6.0 to 7.0% by volume hydrogen, about 1 to 3 hours every day over 3 months, FIG. 2A): evidently improved | forward-bending posture, VAS scale values of 0 to 5.0 ([3]; Case 5, about 6.0 to 7.0% by volume hydrogen, about 1 to 3 hours every day over 3 months, FIG. 2B): evidently improved | rigidity, VAS scale values of 0 to 5.0 ([3]; Case 5, about 6.0 to 7.0% by volume hydrogen, about 1 to 3 hours every day over 3 months, FIG. 2C): evidently improved | bowel movement (constipation), VAS scale values of 0 to 5.0 ([3]; Case 5, about 6.0 to 7.0% by volume hydrogen, about 1 to 3 hours every day over 3 months, FIG. 2E): evidently improved | sleep (insomnia), VAS scale values of 0 to 5.0 ([3]; Case 5, about 6.0 to 7.0% by volume hydrogen, about 1 to 3 hours every day over 3 months, FIG. 2F): evidently improved | tiny step gait, VAS scale values of 0 to 5.0 ([3]; Case 5, over three months after the start of inhalation, FIG. 2D legend): improvements | advancement of symptoms ([4]; hydrogen gas (2%) continuously breathed): the symptoms were advanced | advancement of symptoms ([4]; hydrogen gas (2%) intermittently breathed): slightly lessened | posture forward-bending in a dogleg shape ([5]; Case 1, 90 minutes after the start of first inhalation): improved to a middle between the upright state and the dogleg shape state | complexion, voice, movement, gait and the like ([5]; Case 1, about 6.0 to 7.0% by volume hydrogen, about 90 minutes per day over about 2 months): improved to be almost comparable to a healthy person | time after start of inhalation at which shaking of hands was stopped [5, 6]: about 30 minutes | time after start of inhalation at which shaking under the jaw was stopped [5, 6]: about 40 minutes | time after start of inhalation at which shaking of the hands was stopped ([5]; Case 2 (person one), first inhalation, about 6.0 to 7.0% by volume hydrogen): about 45 minutes | bending of the spine [5, 7]: reduced as compared to the symptom in the early stage | shaking of the hands and the mouth [5, 7]: too small to be recognized unless a careful observation is made | time taken for fastening buttons of clothing and for change of clothes [5, 7]: markedly shortened | bending of the waist compared to before the inhalation ([5]; Case 2, about 90 minutes after the start of first inhalation): improved | time after start of inhalation at which shaking of the mouth was stopped ([5]; Case 2, first inhalation, about 6.0 to 7.0% by volume hydrogen): about 55 minutes | forward-bending posture [5, 8]: improved to a reasonably upright state | shaking of the hands and legs [5, 8]: did not shake, or shook slightly | shaking of the mouth [5, 8]: shook slightly
